Legend:
Format in all cases: cell-based
human TLR7 = biological target: T1, human TLR7 (Homo sapiens, UniProt Q9NYK1); assay: TLR7 inhibition reporter assay (HEK-Blue cells, SEAP reporter, gardiquimod stimulation); settings: HEK-Blue cells overexpressing human TLR7, SEAP reporter, gardiquimod 7.5 μM; read-out: TLR7 IC50
T1 construct: host or cells: HEK-Blue cells
T1 sequence (Q9NYK1 27-1049): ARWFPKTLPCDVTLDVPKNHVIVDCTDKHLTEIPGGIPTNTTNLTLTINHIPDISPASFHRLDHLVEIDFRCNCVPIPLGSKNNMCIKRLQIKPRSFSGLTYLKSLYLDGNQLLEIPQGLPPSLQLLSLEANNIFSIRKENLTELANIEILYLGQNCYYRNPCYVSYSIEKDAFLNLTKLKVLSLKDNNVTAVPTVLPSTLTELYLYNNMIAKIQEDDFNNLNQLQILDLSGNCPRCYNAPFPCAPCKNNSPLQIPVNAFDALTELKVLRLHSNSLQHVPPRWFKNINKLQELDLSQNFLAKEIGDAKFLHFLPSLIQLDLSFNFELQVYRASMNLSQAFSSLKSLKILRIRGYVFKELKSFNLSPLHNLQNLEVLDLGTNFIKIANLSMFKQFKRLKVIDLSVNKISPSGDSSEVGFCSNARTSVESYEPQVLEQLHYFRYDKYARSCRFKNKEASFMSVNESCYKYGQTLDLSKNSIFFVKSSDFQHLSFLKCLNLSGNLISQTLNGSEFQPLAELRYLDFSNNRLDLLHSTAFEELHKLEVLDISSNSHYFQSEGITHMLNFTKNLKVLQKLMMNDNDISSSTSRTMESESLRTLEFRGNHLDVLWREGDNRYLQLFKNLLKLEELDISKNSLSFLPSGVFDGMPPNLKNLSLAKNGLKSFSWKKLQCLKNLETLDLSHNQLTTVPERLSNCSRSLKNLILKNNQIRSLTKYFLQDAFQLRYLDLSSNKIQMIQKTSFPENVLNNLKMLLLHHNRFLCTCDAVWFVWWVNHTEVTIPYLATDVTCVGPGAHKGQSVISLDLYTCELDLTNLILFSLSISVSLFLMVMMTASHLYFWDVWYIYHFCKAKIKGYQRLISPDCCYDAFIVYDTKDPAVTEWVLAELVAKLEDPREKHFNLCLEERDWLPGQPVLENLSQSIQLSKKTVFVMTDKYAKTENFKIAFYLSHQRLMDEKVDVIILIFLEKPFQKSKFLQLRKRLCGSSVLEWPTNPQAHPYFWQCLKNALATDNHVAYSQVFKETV
Summary of the method: (§1)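 Screening used HEK-Blue cells overexpressing one human TLR (7, 8 or 9) and an IFN-β minimal promoter–NF-κB/AP-1 SEAP construct. Stimulation lasted 22 h at 37 °C with receptor-specific agonist: gardiquimod, R848 or ODN2006 at 7.5 μM, 15.9 μM and 5 nM.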

human TLR9 = biological target: T2, human TLR9 (Homo sapiens, UniProt Q9NR96); assay: TLR9 inhibition reporter assay (HEK-Blue cells, SEAP reporter, ODN2006 stimulation); settings: HEK-Blue cells overexpressing human TLR9, SEAP reporter, ODN2006 5 nM
T2 construct: host or cells: HEK-Blue cells
T2 sequence (Q9NR96 26-1032): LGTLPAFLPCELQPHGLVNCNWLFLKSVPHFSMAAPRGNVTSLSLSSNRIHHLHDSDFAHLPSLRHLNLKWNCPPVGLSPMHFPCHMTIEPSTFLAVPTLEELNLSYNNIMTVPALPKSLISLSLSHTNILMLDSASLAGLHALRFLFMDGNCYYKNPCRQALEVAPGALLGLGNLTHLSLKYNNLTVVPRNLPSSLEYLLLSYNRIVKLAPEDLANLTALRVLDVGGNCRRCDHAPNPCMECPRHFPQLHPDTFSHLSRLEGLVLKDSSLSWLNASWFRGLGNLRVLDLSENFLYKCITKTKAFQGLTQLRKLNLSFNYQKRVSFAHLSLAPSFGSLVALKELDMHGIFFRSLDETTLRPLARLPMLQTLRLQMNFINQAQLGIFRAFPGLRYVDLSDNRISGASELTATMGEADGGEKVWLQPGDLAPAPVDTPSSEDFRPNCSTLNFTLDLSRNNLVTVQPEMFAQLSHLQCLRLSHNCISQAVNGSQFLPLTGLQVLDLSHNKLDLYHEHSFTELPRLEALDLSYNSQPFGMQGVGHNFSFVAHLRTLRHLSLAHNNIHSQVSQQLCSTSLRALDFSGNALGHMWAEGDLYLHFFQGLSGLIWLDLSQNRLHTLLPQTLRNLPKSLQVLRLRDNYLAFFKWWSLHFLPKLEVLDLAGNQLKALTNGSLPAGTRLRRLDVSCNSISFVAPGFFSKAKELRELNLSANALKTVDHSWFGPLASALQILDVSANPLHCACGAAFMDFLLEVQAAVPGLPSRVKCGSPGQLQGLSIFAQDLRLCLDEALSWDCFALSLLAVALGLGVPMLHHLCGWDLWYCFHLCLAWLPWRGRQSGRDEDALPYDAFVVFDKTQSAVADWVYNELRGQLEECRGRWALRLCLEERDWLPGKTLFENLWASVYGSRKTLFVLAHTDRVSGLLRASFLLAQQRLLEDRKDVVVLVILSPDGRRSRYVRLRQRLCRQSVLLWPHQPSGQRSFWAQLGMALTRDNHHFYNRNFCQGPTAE
Summary of the method: as §1

human TLR8 = biological target: T3, human TLR8 (Homo sapiens, UniProt Q9NR97); assay: TLR8 inhibition reporter assay (HEK-Blue cells, SEAP reporter, R848 stimulation); settings: HEK-Blue cells overexpressing human TLR8, SEAP reporter, R848 15.9 μM; read-out: TLR8 IC50
T3 construct: host or cells: HEK-Blue cells
T3 sequence (Q9NR97 27-1041): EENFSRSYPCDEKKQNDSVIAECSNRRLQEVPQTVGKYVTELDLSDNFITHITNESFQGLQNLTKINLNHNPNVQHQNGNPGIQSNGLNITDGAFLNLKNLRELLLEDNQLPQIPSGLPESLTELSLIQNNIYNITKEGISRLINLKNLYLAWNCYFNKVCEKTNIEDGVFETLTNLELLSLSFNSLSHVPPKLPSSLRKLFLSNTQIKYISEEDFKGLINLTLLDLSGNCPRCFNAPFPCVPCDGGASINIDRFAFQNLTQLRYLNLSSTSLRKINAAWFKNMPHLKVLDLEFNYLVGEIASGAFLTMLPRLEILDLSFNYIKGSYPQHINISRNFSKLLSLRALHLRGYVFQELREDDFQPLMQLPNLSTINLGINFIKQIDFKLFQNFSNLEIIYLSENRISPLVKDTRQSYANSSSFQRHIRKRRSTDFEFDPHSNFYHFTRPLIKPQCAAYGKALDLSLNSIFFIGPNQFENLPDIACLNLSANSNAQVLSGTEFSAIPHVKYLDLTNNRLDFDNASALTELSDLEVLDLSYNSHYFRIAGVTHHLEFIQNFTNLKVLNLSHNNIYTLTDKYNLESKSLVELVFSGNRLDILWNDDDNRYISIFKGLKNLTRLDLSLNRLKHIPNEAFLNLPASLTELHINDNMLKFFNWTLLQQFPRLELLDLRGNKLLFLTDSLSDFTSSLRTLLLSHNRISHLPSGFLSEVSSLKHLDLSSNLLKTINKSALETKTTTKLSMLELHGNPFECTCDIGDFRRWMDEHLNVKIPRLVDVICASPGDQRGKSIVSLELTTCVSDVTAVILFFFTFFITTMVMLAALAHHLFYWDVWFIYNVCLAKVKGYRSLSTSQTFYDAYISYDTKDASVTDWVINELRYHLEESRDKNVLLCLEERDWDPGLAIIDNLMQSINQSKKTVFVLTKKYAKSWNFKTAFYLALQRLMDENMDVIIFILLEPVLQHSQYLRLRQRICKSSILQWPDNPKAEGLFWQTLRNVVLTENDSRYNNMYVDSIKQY
Summary of the method: as §1

Row | SMILES | IC50 (human TLR7) | IC50 (human TLR9) | IC50 (human TLR8)
1 | COc1cc(-c2[nH]c3sc(C4CCC(N5CC(OC)C5)CC4)nc3c2C(C)C)cn2ncnc12 (single isomer, unassigned) [Example 122, 6-isopropyl-5-(8-methoxy-[1,2,4]triazolo[1,5-a]pyridin-6-yl)-2-(4-(3-methoxyazetidin-1-yl)cyclohexyl)-4H-pyrrolo[3,2-d]thiazole] | 1.95 nM | 9250 nM | 3.34 nM
2 | COc1cc(-c2[nH]c3sc(C4CCC(N5CC(OC)C5)CC4)nc3c2C(C)C)cn2ncnc12 (single isomer, unassigned) [Example 123, 6-isopropyl-5-(8-methoxy-[1,2,4]triazolo[1,5-a]pyridin-6-yl)-2-(4-(3-methoxyazetidin-1-yl)cyclohexyl)-4H-pyrrolo[3,2-d]thiazole] | 5.09 nM | 6290 nM | 16.8 nM
3 | COc1cc(-c2[nH]c3sc(C4CCC(N(C)C5COC5)CC4)nc3c2C(C)C)cn2ncnc12 (single isomer, unassigned) [Example 125, N-(4-(6-isopropyl-5-(8-methoxy-[1,2,4]triazolo[1,5-a]pyridin-6-yl)-4H-pyrrolo[3,2-d]thiazol-2-yl)cyclohexyl)-N-methyloxetan-3-amine] | 5.8 nM | 5400 nM | 25.9 nM
4 | Cc1cc(-c2[nH]c3sc(C4CCC(NC5COC5)CC4)nc3c2C(C)C)cn2ncnc12 (single isomer, unassigned) [Example 130, N-(4-(6-isopropyl-5-(8-methyl-[1,2,4]triazolo[1,5-a]pyridin-6-yl)-4H-pyrrolo[3,2-d]thiazol-2-yl)cyclohexyl)oxetan-3-amine] | 0.45 nM | 11500 nM | 2.42 nM
5 | Cc1cc(-c2[nH]c3sc(C4CCC(NC5COC5)CC4)nc3c2C(C)C)cn2ncnc12 (single isomer, unassigned) [Example 131, N-(4-(6-isopropyl-5-(8-methyl-[1,2,4]triazolo[1,5-a]pyridin-6-yl)-4H-pyrrolo[3,2-d]thiazol-2-yl)cyclohexyl)oxetan-3-amine] | 7.48 nM | 10900 nM | 32.6 nM
6 | CCN(C)C1CCC(c2nc3c(C(C)C)c(-c4cc(C)c5ncnn5c4)[nH]c3s2)CC1 (single isomer, unassigned) [Example 132, N-ethyl-4-(6-isopropyl-5-(8-methyl-[1,2,4]triazolo[1,5-a]pyridin-6-yl)-4H-pyrrolo[3,2-d]thiazol-2-yl)-N-methylcyclohexan-1-amine] | 0.36 nM | 2140 nM | 2.73 nM
7 | Cc1cc(-c2[nH]c3sc(C4CCC(NCC5(C)COC5)CC4)nc3c2C(C)C)cn2ncnc12 (single isomer, unassigned) [Example 134, 4-(6-isopropyl-5-(8-methyl-[1,2,4]triazolo[1,5-a]pyridin-6-yl)-4H-pyrrolo[3,2-d]thiazol-2-yl)-N-((3-methyloxetan-3-yl)methyl)cyclohexan-1-amine] | 1.23 nM | 16100 nM | 1.28 nM
8 | Cc1cc(-c2[nH]c3sc(C4CCC(NCC5(C)COC5)CC4)nc3c2C(C)C)cn2ncnc12 (single isomer, unassigned) [Example 135, 4-(6-isopropyl-5-(8-methyl-[1,2,4]triazolo[1,5-a]pyridin-6-yl)-4H-pyrrolo[3,2-d]thiazol-2-yl)-N-((3-methyloxetan-3-yl)methyl)cyclohexan-1-amine] | 6.8 nM | 22400 nM | 38.9 nM
9 | Cc1cc(-c2[nH]c3sc(C4CCC(N5CC6(COC6)C5)CC4)nc3c2C(C)C)cn2ncnc12 (single isomer, unassigned) [Example 136, 6-(4-(6-isopropyl-5-(8-methyl-[1,2,4]triazolo[1,5-a]pyridin-6-yl)-4H-pyrrolo[3,2-d]thiazol-2-yl)cyclohexyl)-2-oxa-6-azaspiro[3.3]heptane] | 1.69 nM | 42800 nM | 4.36 nM
10 | Cc1cc(-c2[nH]c3sc(C4CCC(N5CC6(COC6)C5)CC4)nc3c2C(C)C)cn2ncnc12 (single isomer, unassigned) [Example 137, 6-(4-(6-isopropyl-5-(8-methyl-[1,2,4]triazolo[1,5-a]pyridin-6-yl)-4H-pyrrolo[3,2-d]thiazol-2-yl)cyclohexyl)-2-oxa-6-azaspiro[3.3]heptane] | 3.4 nM | 6730 nM | 40.8 nM
11 | Cc1cc(-c2[nH]c3sc(C4CCC(NC56CC(C5)C6)CC4)nc3c2C(C)C)cn2ncnc12 (single isomer, unassigned) [Example 138, N-(4-(6-isopropyl-5-(8-methyl-[1,2,4]triazolo[1,5-a]pyridin-6-yl)-4H-pyrrolo[3,2-d]thiazol-2-yl)cyclohexyl)bicyclo[1.1.1]pentan-1-amine] | 0.93 nM | 14800 nM | 3.96 nM

From patent publication US20230139171A1 (SITA Information Networking Computing UK Limited, priority 2019, published 2023)
